Test systems include BT-549 breast; DU-145 prostate; MDA-MB-231 breast; MDA-N.
What all share (test): NCI tumour cell line growth inhibition, 48 h

SMILES strings stand for the structures.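 1) Cells in 96-well plates. 2) Compound, 48 h, 5 concentrations. 3) Linear interpolation between surrounding doses. 4) Unreached endpoint = highest concentration. GI50: concentration for 50% inhibition of growth. TGI: concentration producing complete growth inhibition.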

The text below walks through data of PubChem BioAssay (NCI).

For the compound `NC(=NCc1ccccc1)N/N=C\c1ccnc2ccccc12`, the TGI worked out at 18.6 µM with BT-549 breast, 32.3 µM with DU-145 prostate, 28.2 µM in the assay with MDA-MB-231 breast and 26.6 µM in the assay on MDA-N.

In the case of `c1ccc(COc2ccc(Nc3ncnc4ccc(-c5ccco5)cc34)cc2)cc1`, the GI50 with BT-549 breast is 6.87 µM; in the assay on DU-145 prostate, 5.74 µM; in the assay on MDA-MB-231 breast, 5.49 µM. Also, the TGI was > 25 µM with BT-549 breast, 24.6 µM in the assay on DU-145 prostate and 13.7 µM in the assay with MDA-MB-231 breast.

Regarding `OCCC#Cc1ccccc1C#Cc1ccccc1`, the GI50 is 8.98 µM in the assay on BT-549 breast, 12.5 µM with DU-145 prostate and 3.41 µM in the assay with MDA-MB-231 breast. The values for the TGI in the assay with BT-549 breast, in the assay with DU-145 prostate and in the assay on MDA-MB-231 breast were 22.3 µM, 26.5 µM and 16.1 µM, respectively.

As to `Cn1cc(-c2ccc3c(c2)ncn3-c2ccc(CC(=O)Nc3cc(C(C)(C)C)on3)cc2)cn1`, the GI50 in the assay on BT-549 breast was 1.49 µM; with DU-145 prostate, 1.37 µM; with MDA-MB-231 breast, 1.23 µM. The TGI in the assay on BT-549 breast amounted to 13.2 µM; in the assay on DU-145 prostate, 9.49 µM; in the assay on MDA-MB-231 breast, 3.6 µM.

With `CCN=C(N)CSS(=O)(=O)O`, the TGI in the assay on BT-549 breast, in the assay on DU-145 prostate, in the assay with MDA-MB-231 breast and in the assay with MDA-N was > 100 µM throughout.

With `CCN1C(=O)N(CC)C2C1NN=c1s/c(=C\c3ccc([N+](=O)[O-])cc3)c(=O)n12` (stereo not drawn), the GI50 was 1.55 µM in the assay with BT-549 breast, 0.424 µM in the assay on DU-145 prostate and 1.42 µM with MDA-MB-231 breast. The figures for the TGI in the assay on BT-549 breast, in the assay on DU-145 prostate and in the assay on MDA-MB-231 breast were 16.5 µM, > 100 µM and > 44.2 µM, respectively.

Regarding `COC(=O)C1(C)CCc2c(ccc3ccccc23)C1=O` (stereo not drawn), the TGI in the assay with BT-549 breast is 64 µM; in the assay with DU-145 prostate, > 100 µM; with MDA-MB-231 breast it was > 100 µM; in the assay with MDA-N it was 76.5 µM.

As to `NCCCNCCCNc1nc2ccccc2c2[nH]c3ccccc3c12`, the GI50 in the assay with BT-549 breast is 1.05 µM; with DU-145 prostate it was 0.0756 µM; in the assay on MDA-MB-231 breast, 0.142 µM. Moreover, the figures for the TGI with BT-549 breast, with DU-145 prostate and in the assay on MDA-MB-231 breast were 2.4 µM, 1.51 µM and 1.56 µM, respectively.

As to `C=C(CNCCc1ccc(O)cc1)[C@@H]1CC[C@]2(CO)CC[C@]3(C)[C@H](CC[C@@H]4[C@@]5(C)CCC(NCCO)C(C)(C)[C@@H]5CC[C@]43C)[C@@H]12` (stereo partly drawn), the GI50 is 1.5 µM in the assay with BT-549 breast, 1.6 µM with DU-145 prostate and 1.33 µM in the assay with MDA-MB-231 breast. Also, the values for the TGI in the assay on BT-549 breast, in the assay on DU-145 prostate and in the assay on MDA-MB-231 breast were 3.15 µM, 3.04 µM and 2.74 µM, respectively.

Take `CCOC(=O)/C(=C/c1c(-c2ccccc2)[nH]c2ccccc12)C(=O)c1ccc(Cl)cc1`: the results for the GI50 in the assay on BT-549 breast, with DU-145 prostate and in the assay on MDA-MB-231 breast were 8.82 µM, 5.87 µM and 4.74 µM, respectively. Moreover, the TGI with BT-549 breast, in the assay with DU-145 prostate and with MDA-MB-231 breast was > 100 µM throughout.

As for `CN(C)c1ccc(N=C(C#N)c2nc(N)nc(N3CCOCC3)n2)cc1`, the GI50 was 35 µM in the assay on BT-549 breast, 49.8 µM with DU-145 prostate and 20.7 µM with MDA-MB-231 breast. For the same compound, the TGI in the assay with BT-549 breast was > 100 µM; in the assay on DU-145 prostate, > 100 µM; in the assay with MDA-MB-231 breast, 50.5 µM.

In the case of `COC(=O)Oc1nn(C(=O)OC)c(=O)c2ccccc12` (tested in a mixture with another compound), the TGI in the assay on DU-145 prostate, with MDA-MB-231 breast and with MDA-N was > 100 µM in each case.

Regarding `CC1(C)OCC(C2OC(On3nnc4ccc(Cl)cc43)C3OC(C)(C)OC23)O1` (stereo not drawn), the TGI in the assay with BT-549 breast, in the assay on DU-145 prostate, in the assay on MDA-MB-231 breast and in the assay on MDA-N was > 100 µM each time.

`O=S(=O)(Nc1ccc2ccc3cccc4ccc1c2c34)c1ccccc1`: the TGI with BT-549 breast, in the assay with DU-145 prostate and with MDA-MB-231 breast was > 100 µM in each case.

Consider `Oc1ccc(-c2nc(-c3ccc(F)cc3)c(-c3ccncc3)[nH]2)cc1`, for which the GI50 in the assay with BT-549 breast was 17.7 µM; in the assay on DU-145 prostate, 15.4 µM; with MDA-MB-231 breast it was 11.2 µM. Also, the TGI in the assay with BT-549 breast is 64 µM; in the assay on DU-145 prostate, > 100 µM; in the assay with MDA-MB-231 breast, > 100 µM.

Turning to `COc1cc2c(cc1OCCCN1CCN(CCCOc3cc4c(cc3OC)C(=O)C3CCC[C@H]3C=N4)CC1)N=C[C@@H]1CCCC1C2=O` (stereo partly drawn), the GI50 with BT-549 breast is 1.7 µM; with DU-145 prostate, 2.41 µM; with MDA-MB-231 breast, 8.44 µM. Further, the TGI with BT-549 breast is > 100 µM; with DU-145 prostate, > 100 µM; with MDA-MB-231 breast, > 26.6 µM.

In the case of `COC12c3ccccc3-c3ccccc3C1[C@@H](C(=O)O)[C@H]2C(=O)O` (stereo partly drawn), the TGI with DU-145 prostate, in the assay with MDA-MB-231 breast and in the assay with MDA-N was > 10 µM in each case.

In the case of `Nc1nccc(C#Cc2cncnc2Nc2ccc(OCc3cccc(F)c3)c(Cl)c2)n1`, the GI50 is 3.15 µM in the assay with BT-549 breast, 4.37 µM in the assay on DU-145 prostate and 5.56 µM in the assay on MDA-MB-231 breast. Also, the TGI in the assay on BT-549 breast stood at 9.62 µM; in the assay on DU-145 prostate, 7.81 µM; in the assay on MDA-MB-231 breast, 13.1 µM.

As for `Cn1cc(-c2nonc2-c2cn(C)c3ccc(Br)cc23)c2ccccc21`, the GI50 was 6.17 µM in the assay with BT-549 breast, 4.09 µM in the assay with DU-145 prostate and 3.67 µM in the assay on MDA-MB-231 breast. The TGI with BT-549 breast, in the assay with DU-145 prostate and with MDA-MB-231 breast was > 100 µM in each case.

On to `O=C1c2cccnc2-c2nc(-c3ccccc3)cc3c2c1nc1ccccc13`, for which the GI50 was 5.15 µM with BT-549 breast, 13.6 µM with DU-145 prostate, 4.33 µM in the assay with MDA-MB-231 breast and 1.74 µM in the assay on MDA-N. In addition, the TGI in the assay with BT-549 breast was 21.3 µM; with DU-145 prostate, 30.2 µM; in the assay on MDA-MB-231 breast, > 100 µM; in the assay with MDA-N it was 3.46 µM.

As to `Cn1cccc1C1CC(=O)N(CCC[Se]C#N)C1=O` (stereo not drawn), in the assay on DU-145 prostate, the GI50 was 1.81 µM and the TGI amounted to 3.78 µM.

As to `CC1(C)CCC(CN2CCN(c3ccc(C(=O)NS(=O)(=O)c4ccc(NCC5CCOCC5)c([N+](=O)[O-])c4)c(Oc4cnc5[nH]ccc5c4)c3)CC2)=C(c2ccc(Cl)cc2)C1`, the GI50 was 3.13 µM in the assay on BT-549 breast, 4.47 µM in the assay with DU-145 prostate and 1.78 µM in the assay on MDA-MB-231 breast. Also, the TGI was 8.66 µM in the assay on BT-549 breast, 21.3 µM in the assay with DU-145 prostate and 4 µM in the assay with MDA-MB-231 breast.
